≈ marks a conversion by molar mass, not a printed value. Where “and” joins values, the source holds several entries; their conditions need not be identical. Identical values can stand only once.
Tests used:
[1] = biological target: human DNA topoisomerase II (Homo sapiens, UniProt P11388); assay: kDNA assay for testing topoisomerase II activity; assay type: biochemical; conditions: compound 1 at 100, 31.6 and 10 μM; reference compounds 100 μM
Description: In this assay, which was described by P. Arimondo (Anti-Cancer Drug Design 2000, 15(6), 413–421), kDNA is treated with human DNA topoisomerase II in the absence or presence of the test compounds. In the assay, compound 1 according to the invention was tested at three different concentrations (100, 31.6 and 10 μM). A positive control and the reference compounds m-amsacrine (m-amsa), paclitaxel (Taxol) and vincristine, with the concentration in each case being 100 μM, were used for comparison.
2 μL of 10× assay buffer, 1 μL of kDNA (200 ng), 0.5 μL of human topoisomerase II (1 unit) and 15.5 μL of H2O are added by pipette to 1 μL of initially introduced test substance (20 times concentrated in 100% DMSO) and the reagents are mixed.
The reaction assay samples are placed in a heating block which has been preheated to 37° C. and incubated at 37° C. for 10 min. The incubation is stopped after adding 4 μL of 5× Stop buffer and the substance is subsequently extracted with CIA. After that, 20 μL of the supernatant are loaded onto a 1% agarose gel containing 0.25 μg of ethidium bromide/mL and separated at 100 V for 1 h. Finally, the gel is photographed under UV excitation (see FIG. 1). The inhibition of the decatenation of kDNA is quantified using the GelPro® Analyzer Software (see FIG. 2).

[2] = biological target: bovine tubulin (Bos taurus, UniProt P81947+Q6B856); assay: Inhibition of tubulin polymerization; assay type: biochemical; conditions: summary of Table 3
Description: Substances 1, 4, 9, 11, 12, 13 and 15 were tested for their ability to inhibit the polymerization of bovine tubulin in an in-vitro test (D. M. Bollag et al. Cancer Res. 1995, 55, 2325–2333). This test uses-tubulin which has been purified by cycles of polymerization and depolymerization and which is caused to polymerize by adding GTP and heating it. Table 3 gives the EC50 values causing inhibition of the polymerization of tubulin containing 30% associated proteins (MPAs).

[3] = biological target: human topoisomerase II (Homo sapiens, UniProt P11388); assay: pRYG relaxation assay for testing topoisomerase II activity; assay type: biochemical; conditions: compound 1 at 100, 31.6 and 10 μM; reference compounds 316 and 100 μM
Description: In the assay, the compound 1 according to the invention was tested at three different concentrations (100, 31.6 and 10 μM). The reference compounds m-amsacrine, paclitaxel (Taxol) and vincristine were used, at concentrations of 316 and 100 μM, for comparison.
2 μL of 10× assay buffer, 0.5 μL of pRYG DNA (125 ng), 0.5 μL of human topoisomerase II (1 unit) and 16 μL of H2O are added by pipette to 1 μL of initially introduced test substance (20 times concentrated in 100% DMSO) and the reagents are mixed. The reaction assay samples are placed in a heating block which has been preheated to 37° C. and incubated at 37° C. for 30 min. The incubation is stopped after adding 4 μL of 5× Stop buffer. After that, 10 μL of the assay sample are loaded onto a 1.2% agarose gel containing 0.25 μg of ethidium bromide/mL and separated at 100 V for 2.5 h. Finally, the gel is photographed under UV excitation (see FIG. 3). The inhibition of pRYG relaxation is quantified using the GelPro® Analyzer Software (see FIG. 4).

[4] = tested on: U-937 cell line; assay: CDDplus nucleosome ELISA test (apoptosis); assay type: cell-based; conditions: U-937, 1 nM–10 μM, 24 h of treatment
Description: Nuclear fragmentation is a late consequence of apoptotic processes. The changes which can be observed in this connection can be attributed to DNA strands being cleaved by endonucleases and the fragmentation into nucleosome particles which results therefrom.
For this, the effects of compounds 1 and 2 on the U-937 cell line were investigated at different concentrations (1 nM–10 μM; 24 h of treatment). (See FIG. 5 and FIG. 6).

[5] = Saturation solubility in water; assay type: physicochemical; conditions: thermodynamic from solid, maximum of 1% DMSO, HPLC-UV
Description: A maximum of 1% DMSO was added for the purpose of solubilizing the substances and improving the wetting of the samples. An HPLC-UV method was used for checking the content.

[6] = tested on: melanoma, MEXF-462; assay: Human xenograft model, melanoma MEXF-462; assay type: in vivo; conditions: for tolerability (in words): MEXF462 xenograft, p.o.
From the text: The in-vivo activity and tolerability of compound 2 according to the invention, as compared with those of substances 10 and 14, were examined in a human xenograft model (melanoma, MEXF-462).

[7] = tested on: mammary gland, MAXF857; assay: Human xenograft model, mammary gland MAXF857; assay type: in vivo
From the text: The in-vivo activity and tolerability of compound 2 according to the invention, as compared with those of substance 10, were examined in another human xenograft model (mammary gland, MAXF857).

[8] = tested on: resistant line L1210/mdr (L1210VCR); assay: XTT proliferation assay, L1210VCR; assay type: cell-based, murine; conditions: Mus musculus
From the text: (§1) For further characterization, substances 1, 2, 4 and 11 were investigated with regard to their effect on mulitdrug-resistance cell lines as compared with that on nonresistant wild-type cell lines.
(§2) The cell lines which were investigated are the murine cell line L1210, the acute myeloid leukemia cell line LT12 and the resistant lines L1210/mdr and LT12/mdr. The murine cell line P388 (methylcholanthrene-induced lymphoid neoplasm) and doxorubicin-resistant P388 were also included as test systems.
(§3) The test results are summarized in Table 2 below: • XTT proliferation assay, EC50 in μg/ml

[9] = tested on: acute myeloid leukemia cell line LT12; assay: XTT proliferation assay, LT12; assay type: cell-based; conditions: Rattus norvegicus
From the text: as §1, §2, §3

[10] = tested on: resistant line LT12/mdr; assay: XTT proliferation assay, LT12/mdr; assay type: cell-based; conditions: Rattus norvegicus, LT12mdr
From the text: as §1, §2, §3

[11] = tested on: murine cell line P388; assay: XTT proliferation assay, P388; assay type: cell-based; conditions: Mus musculus
From the text: as §1, §2, §3

[12] = tested on: murine cell line L1210; assay: XTT proliferation assay, L1210; assay type: cell-based; conditions: Mus musculus
From the text: as §1, §2, §3

[13] = tested on: doxorubicin-resistant P388; assay: XTT proliferation assay, P388ADR; assay type: cell-based, murine; conditions: Mus musculus
From the text: as §1, §2, §3

[14] = tested on: KB/HeLa cells; assay: Cell cycle analysis (G2/M arrest); assay type: cell-based; conditions: Homo sapiens, 24 hours, 37° C., read-out: EC50 (50% of cells in G2/M)
Description: For the cell cycle analysis, KB/HeLa cells were treated with different concentrations of the test substances (0.1–1000 nM) at 37° C. for 24 hours.
The percentage of cells arrested in the G2/M phase of the cell cycle after having been treated with reference substances or selected test substances is shown in Table 4 below. The results were analyzed using special analytical software (ModFit™).

Chain of bovine tubulin (P81947 whole entry): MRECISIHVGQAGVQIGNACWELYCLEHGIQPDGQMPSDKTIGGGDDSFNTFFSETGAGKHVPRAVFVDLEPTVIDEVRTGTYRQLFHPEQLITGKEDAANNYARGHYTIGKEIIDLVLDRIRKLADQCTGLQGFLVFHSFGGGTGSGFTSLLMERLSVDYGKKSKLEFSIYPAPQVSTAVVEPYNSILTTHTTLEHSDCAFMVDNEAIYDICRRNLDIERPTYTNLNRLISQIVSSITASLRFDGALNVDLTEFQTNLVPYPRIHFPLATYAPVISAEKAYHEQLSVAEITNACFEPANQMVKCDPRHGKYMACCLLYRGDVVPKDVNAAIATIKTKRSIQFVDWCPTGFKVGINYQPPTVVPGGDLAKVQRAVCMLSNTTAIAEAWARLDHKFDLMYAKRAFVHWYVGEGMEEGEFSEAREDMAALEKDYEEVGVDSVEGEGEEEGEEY
Chain of bovine tubulin (Q6B856 whole entry): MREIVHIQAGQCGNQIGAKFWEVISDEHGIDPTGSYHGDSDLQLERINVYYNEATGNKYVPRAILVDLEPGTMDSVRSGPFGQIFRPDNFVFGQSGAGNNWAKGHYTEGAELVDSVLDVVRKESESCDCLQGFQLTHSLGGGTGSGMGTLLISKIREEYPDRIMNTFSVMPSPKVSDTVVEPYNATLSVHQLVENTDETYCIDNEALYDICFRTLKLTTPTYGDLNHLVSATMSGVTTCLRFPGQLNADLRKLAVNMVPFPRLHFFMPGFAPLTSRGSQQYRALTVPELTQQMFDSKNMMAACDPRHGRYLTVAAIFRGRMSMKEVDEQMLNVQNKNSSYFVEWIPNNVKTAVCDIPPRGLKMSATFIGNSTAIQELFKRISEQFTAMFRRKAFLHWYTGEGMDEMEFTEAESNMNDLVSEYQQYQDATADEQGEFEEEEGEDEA
Chain of human topoisomerase II (P11388 whole entry): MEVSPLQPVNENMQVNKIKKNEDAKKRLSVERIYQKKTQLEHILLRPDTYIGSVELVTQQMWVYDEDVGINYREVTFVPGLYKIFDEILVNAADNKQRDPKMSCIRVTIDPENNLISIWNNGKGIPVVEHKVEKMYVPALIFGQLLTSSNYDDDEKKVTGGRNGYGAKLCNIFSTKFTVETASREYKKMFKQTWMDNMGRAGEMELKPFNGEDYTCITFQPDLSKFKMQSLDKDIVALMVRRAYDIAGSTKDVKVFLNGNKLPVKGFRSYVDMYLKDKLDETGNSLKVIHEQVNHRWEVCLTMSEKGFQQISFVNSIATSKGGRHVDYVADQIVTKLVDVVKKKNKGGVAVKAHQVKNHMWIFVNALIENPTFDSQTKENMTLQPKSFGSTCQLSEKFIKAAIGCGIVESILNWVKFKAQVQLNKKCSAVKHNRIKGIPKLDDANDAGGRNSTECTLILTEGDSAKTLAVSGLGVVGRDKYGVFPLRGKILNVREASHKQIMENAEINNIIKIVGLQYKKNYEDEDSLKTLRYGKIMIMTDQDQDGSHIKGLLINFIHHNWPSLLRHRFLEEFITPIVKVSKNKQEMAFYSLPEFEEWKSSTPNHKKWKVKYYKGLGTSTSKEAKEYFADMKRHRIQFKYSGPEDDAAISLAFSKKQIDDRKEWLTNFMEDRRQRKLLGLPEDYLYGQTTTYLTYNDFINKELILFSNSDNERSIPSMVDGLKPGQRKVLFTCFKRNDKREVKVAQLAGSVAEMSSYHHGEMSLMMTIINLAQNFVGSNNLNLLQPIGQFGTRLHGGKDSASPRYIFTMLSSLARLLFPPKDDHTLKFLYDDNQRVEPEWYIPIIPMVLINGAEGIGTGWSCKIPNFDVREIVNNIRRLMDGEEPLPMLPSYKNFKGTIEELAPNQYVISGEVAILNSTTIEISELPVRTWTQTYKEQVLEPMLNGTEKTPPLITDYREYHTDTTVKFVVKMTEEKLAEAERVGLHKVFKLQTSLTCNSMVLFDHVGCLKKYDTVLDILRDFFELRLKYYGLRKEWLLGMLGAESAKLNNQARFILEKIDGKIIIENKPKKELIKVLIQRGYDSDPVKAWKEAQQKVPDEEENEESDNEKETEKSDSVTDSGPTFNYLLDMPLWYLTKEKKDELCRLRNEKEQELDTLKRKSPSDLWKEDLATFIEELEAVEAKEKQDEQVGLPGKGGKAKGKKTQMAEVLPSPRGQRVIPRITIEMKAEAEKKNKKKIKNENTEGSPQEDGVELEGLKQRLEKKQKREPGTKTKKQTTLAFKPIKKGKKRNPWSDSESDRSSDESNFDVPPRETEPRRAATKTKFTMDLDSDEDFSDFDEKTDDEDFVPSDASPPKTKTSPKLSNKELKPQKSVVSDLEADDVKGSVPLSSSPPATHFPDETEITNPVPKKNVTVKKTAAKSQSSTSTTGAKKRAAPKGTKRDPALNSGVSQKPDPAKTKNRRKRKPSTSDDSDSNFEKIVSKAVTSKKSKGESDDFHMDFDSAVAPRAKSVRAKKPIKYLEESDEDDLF
Chain of human DNA topoisomerase II (P11388 whole entry): as above

| Structure (SMILES) | inhibitory effect on tubulin polymerization (in words) [2] | solubility [5] [µg/mL] | EC50 [8] [µg/mL] | EC50 [9] [µg/mL] | EC50 [10] [µg/mL] | EC50 [11] [µg/mL] | EC50 [12] [µg/mL] | EC50 [13] [µg/mL] | other results |
| --- | --- | --- | --- | --- | --- | --- | --- | --- | --- |
| O=C(Nc1cnc2nccnc2c1)C(=O)c1cn(Cc2ccc(Cl)cc2)c2ccccc12 [Compound 1, 2-[1-(4-chlorobenzyl)-1H-indol-3-yl]-2-oxo-N-pyrido[2,3-b]pyrazin-7-ylacetamide] | very potent inhibitory effect | 25 (≈ 56.6 µM) | – | – | – | – | – | – | inhibition of topoisomerase II, kDNA decatenation [1]: significantly inhibit topoisomerase II; inhibition of topoisomerase II, pRYG DNA relaxation [3]: significantly inhibit topoisomerase II; nucleosomes in the cell culture supernatant [4]: not possible to demonstrate any significant increase; nucleosomes in the cell lysate [4]: concentration-dependent increase of nucleosomes in the cell lysate |
| CC(=O)N(C(=O)C(=O)c1cn(Cc2ccc(Cl)cc2)c2ccccc12)c1ccc2ncccc2c1 [Compound 2, N-{2-[1-(4-chlorobenzyl)-1H-indol-3-yl]-2-oxoacetyl}-N-quinolin-6-ylacetamide] | – | 28.5 (≈ 59.1 µM) | – | – | – | – | – | – | Deaths n (dead animals / total number) ([6]; MEXF462, 80 mg/kg p.o.): 0/6 mice; remission of the tumors ([6]; MEXF462, 80 mg/kg p.o., 6 animals): complete remission of the tumors in the treated animals; Optimum T/C % (day) ([6]; MEXF462, 80 mg/kg p.o., day 18): 0.0% (18); tolerability (in words) [6]: very well tolerated (no deaths); nucleosomes in the cell culture supernatant [4]: not possible to demonstrate any significant increase; nucleosomes in the cell lysate [4]: concentration-dependent increase of nucleosomes in the cell lysate; Deaths n (dead animals / total number) ([7]; MAXF857, 80 mg/kg p.o.): 0/6 mice; Optimum T/C % (day) ([7]; MAXF857, 80 mg/kg p.o., day 10): 9.6% (10) |
| O=C(Nc1ccc2[nH]ncc2c1)C(=O)c1cn(Cc2ccc(Cl)cc2)c2ccccc12 [Compound 4, 2-[1-(4-chlorobenzyl)-1H-indol-3-yl]-N-(1H-indazol-5-yl)-2-oxoacetamide] | very potent inhibitory effect | – | – | – | – | – | – | – | melting point: 203 °C |
| Cc1ccc2cc(NC(=O)C(=O)c3cn(Cc4ccc(Cl)cc4)c4ccccc34)ccc2n1 [Compound 9, 2-[1-(4-chlorobenzyl)-1H-indol-3-yl]-N-(2-methylquinolin-6-yl)-2-oxoacetamide] | very potent inhibitory effect | – | – | – | – | – | – | – | – |
| O=C(Nc1ccc2ncccc2c1)C(=O)c1cn(Cc2ccc(Cl)cc2)c2ccccc12 [Compound 10, 2-[1-(4-chlorobenzyl)-1H-indol-3-yl]-2-oxo-N-quinolin-6-ylacetamide] | – | 0.038 (≈ 0.0864 µM) | – | – | – | – | – | – | Deaths n (dead animals / total number) ([6]; MEXF462, 55 mg/kg p.o.): 2/6 mice; Deaths n (dead animals / total number) ([6]; MEXF462, 70 mg/kg p.o.): 5/6 mice; tolerability (in words) [6]: less well tolerated; Deaths n (dead animals / total number) ([7]; MAXF857, 40 mg/kg p.o.): 2/6 and 2/6 mice; tolerability (in words) ([7]; MAXF857 xenograft, p.o.): substantially less well tolerated than 2 |
| O=C(Nc1cccc2cccnc12)C(=O)c1cn(Cc2ccc(Cl)cc2)c2ccccc12 [Compound 12, 2-[1-(4-chlorobenzyl)-1H-indol-3-yl]-2-oxo-N-quinolin-8-ylacetamide] | do not exert any effect | – | – | – | – | – | – | – | melting point: 178 °C |
| O=C(Nc1ccncc1)C(=O)c1cn(Cc2ccc(Cl)cc2)c2ccccc12 [Compound 14, 2-[1-(4-chlorobenzyl)-1H-indol-3-yl]-2-oxo-N-pyridin-4-ylacetamide] | – | 0.35 (≈ 0.898 µM) | – | – | – | – | – | – | Deaths n (dead animals / total number) ([6]; MEXF462, 16 mg/kg p.o.): 3/5 mice; Deaths n (dead animals / total number) ([6]; MEXF462, 32 mg/kg p.o.): 3/5 mice; tolerability (in words) [6]: less well tolerated |
| Cc1ccc2cccc(NC(=O)C(=O)c3cn(Cc4ccc(F)cc4)c4ccccc34)c2n1 [Compound 15, 2-[1-(4-fluorobenzyl)-1H-indol-3-yl]-N-(2-methylquinolin-8-yl)-2-oxoacetamide] | do not exert any effect | – | – | – | – | – | – | – | melting point: 200 to 202 °C |
| COc1cccc2c1C(=O)c1c(O)c3c(c(O)c1C2=O)C[C@@](O)(C(=O)CO)C[C@@H]3O[C@H]1C[C@H](N)[C@H](O)[C@H](C)O1 [Doxorubicin, doxorubicin] | – | – | > 3.16 | 0.029 (≈ 0.0534 µM) | > 3.16 | 0.204 (≈ 0.375 µM) | 0.269 (≈ 0.495 µM) | > 3.16 | – |
| COc1cc([C@@H]2c3cc4c(cc3[C@@H](O[C@@H]3O[C@@H]5CO[C@@H](C)O[C@H]5[C@H](O)[C@H]3O)[C@H]3COC(=O)[C@H]23)OCO4)cc(OC)c1O [Etoposide, etoposide] | – | – | > 3.16 | 0.094 (≈ 0.16 µM) | > 3.6 | 0.202 (≈ 0.343 µM) | 0.269 (≈ 0.457 µM) | > 3.16 | – |
| O=C1c2c(O)ccc(O)c2C(=O)c2c(NCCNCCO)ccc(NCCNCCO)c21 [Mitoxantrone, mitoxantrone] | – | – | 2.1 (≈ 4.72 µM) | 0.006 (≈ 0.0135 µM) | 3.1 (≈ 6.97 µM) | 0.053 (≈ 0.119 µM) | 0.09 (≈ 0.202 µM) | 0.608 (≈ 1.37 µM) | EC50 [14]: 0.0253 µM |
| CC[C@]1(O)C[C@H]2CN(CCc3c([nH]c4ccccc34)[C@@](C(=O)OC)(c3cc4c(cc3OC)N(C=O)[C@H]3[C@@](O)(C(=O)OC)[C@H](OC(C)=O)[C@]5(CC)C=CCN6CC[C@]43[C@@H]65)C2)C1 [Vincristine, vincristine] | – | – | > 3.16 | 0.002 (≈ 0.00242 µM) | 0.134 (≈ 0.162 µM) | 0.004 (≈ 0.00485 µM) | 0.015 (≈ 0.0182 µM) | 0.93 (≈ 1.13 µM) | inhibition of topoisomerase II, kDNA decatenation [1]: neither paclitaxel nor vincristine was observed to have any inhibitory effects; inhibition of topoisomerase II, pRYG DNA relaxation [3]: neither paclitaxel nor vincristine was observed to have any inhibitory effects |

Source: US7205299B2, “Indole derivatives having an apoptosis-inducing effect” (Zentaris GmbH, priority 2003, dated 2007)
